pIC50: −log10 of the molar value. Values joined by “and” are separate entries in the source; they are usually repeats but may differ in a detail not shown here. Equal entries are not always repeated.

Data on six compounds can be found in US6710030B1, “Contortrostain (CN) and methods for its use in preventing metastasis and other conditions” (University of Southern California, priority 1993, dated 2004).

For test [1], the system named is MDA-MB-435 cells. The experiment in a line: Binding of MDA-MB-435 cells to immobilized CN. Format: cell-based, human. The settings on record: CN at 0.1 μg/well; read-out: IC50 for blocking binding of MDA-MB-435 cells to immobilized CN. Here is the method:
The effect of CN on binding of highly metastatic human breast cancer cells, MDA-MB-435 cell line, to ECM proteins was examined. Human fibronectin and vitronectin were immobilized in the wells of 96-well microtiter plates. […] In a variation of the above experiments, CN was immobilized. […] Referring to FIGS. 12 and 13, varying concentrations of GRGDSP (FIG. 12) or EDTA (FIG. 13) were used to inhibit binding of human mammary carcinoma cells to immobilized CN. CN was at 0.1 μg/well. The vertical line at each data point indicates the y-axis error bar. All experiments were conducted as three sets of triplicates for each data point.

Test [2] concerns MDA-MB-435 cells. Put plainly: Phosphotyrosine immunoblot, MDA-MB-435 cells. Format: cell-based, human. The procedure:
(§1) Cell culture, preparation and stimulation—T24 cells were maintained in RPMI 1640 medium containing 5% fetal bovine serum, and MDA-MB-435 and 293 cells were maintained in Dulbecco's modified Eagle's medium with 10% serum at 37° C. in 5% CO2. Cells were washed with phosphate-buffered saline (PBS) and starved in the appropriate serum-free medium for 6 h at 37° C. Cells were detached by brief treatment with 0.05% trypsin/0.02% EDTA in PBS and collected by centrifugation, resuspended in soybean trypsin inhibitor (1 mg/ml in serum-free medium), and washed in 2% bovine serum albumin/serum-free medium. Cells were maintained in suspension for 1 h in 2% bovine serum albumin/serum-free medium at 37° C. with end-over-end agitation. Quiescent cells (3×10^6/ml) were treated with disintegrins or other reagents while in suspension, or were allowed to adhere to Matrigel (Becton Dickinson, Bedford, Mass.) diluted 1:100 with serum-free medium during treatment.
Lysate preparation and immunoprecipitation—Suspended and adherent cells were washed twice with cold PBS and lysed in cold lysis buffer (50 mM Tris, pH 8.0, 150 mM NaCl, 1% Nonidet P-40, 0.5% deoxycholate, 0.1% SDS, protease inhibitor cocktail, 1 mM sodium pyrophosphate, 1 mM sodium orthovanadate, 50 mM sodium fluoride). After 10-15 min incubation on ice, insoluble material was removed by centrifugation at 14,000 RPM in a microcentrifuge for 15 min. Supernatants were collected and total protein concentrations standardized by the BCA protein assay (Pierce, Rockford, Ill.). Immunoprecipitation was carried out by incubating whole cell lysates (200 μg total protein) with 1.25 μg anti-FAK or anti-CAS mAb 4-6 h at 4° C. followed by 20 μl protein G-agarose overnight at 4° C. Immunoprecipitates were washed 4 times in lysis buffer without inhibitors and dissociated by adding SDS-PAGE sample buffer and boiling 5 min. Whole cell lysates (30 μg total protein) or immunoprecipitates were resolved by 7.5% SDS-polyacrylamide gel electrophoresis and transferred to nitrocellulose membranes. […]
A general note: In western blotting, separated proteins are transferred to a membrane and probed.

A further test concerns T24 cells. Put plainly: Phosphotyrosine immunoblot, T24 cells. Format: cell-based, human. The settings on record: pretreated 30 min, 10 nM contortrostatin. Here is the method: as §1
Lysate preparation and immunoprecipitation—Suspended and adherent cells were washed twice with cold PBS and lysed in cold lysis buffer (50 mM Tris, pH 8.0, 150 mM NaCl, 1% Nonidet P-40, 0.5% deoxycholate, 0.1% SDS, protease inhibitor cocktail, 1 mM sodium pyrophosphate, 1 mM sodium orthovanadate, 50 mM sodium fluoride). […]

Test [3] deals with canine carotid artery thrombosis model. The experiment in a line: Reoccluding canine carotid artery thrombosis model. It is filed as in vivo. The text has this:
The model of carotid artery thrombosis in the anesthetized canine described is a modification of one developed for the study of experimentally-induced coronary artery thrombosis [Romson, J. L. et al., Thromb. Res. 17:841 (1980)]. The experimental procedure results in the formation of a platelet rich intravascular thrombus at the site of an electrolytically-induced endothelial lesion in proximity to a distal arterial stenosis. The carotid artery is selected for the experimental model, thereby allowing one vessel to be used as a control and the other to be used after administration of the thrombolytic and antithrombotic therapy. APSAC (anisoylated plasminogen streptokinase activator complex) has been used as the thrombolytic agent successfully in this model. […] The lytic-antithrombotic combination of agents may then be administered to only one of the occluded vessels; this allows for an internal control and eliminates those animals that may not form thrombi due to causes unrelated to the vessel wall injury and subsequent occlusive thrombus formation, i.e., low circulating platelet counts, enhanced spontaneous thrombolysis, presence of heart worms, etc. Parameters which are recorded include repeated measures of: phasic and mean carotid artery blood flow velocity using an ultrasonic flow probe, time to thrombotic occlusion, time to recannulization, ex vivo platelet aggregation, prothrombin time, thrombin time, activated partial thromboplastin time, red cell and white cell counts, hematocrit, EKG profile and body temperature, before and after administration of APSAC or APSAC plus CN to separate groups of animals.
Conditioned male mongrel dogs (8-10 kg) have been used for all in vivo studies. Dogs are anesthetized with sodium pentobarbital, intubated and allowed to breath room air under positive pressure respiration. Arterial blood gasses and pH determinations are made every 45 minutes and appropriate adjustments made to maintain the blood gasses and arterial pH within normal limits. Both common carotid arteries and the right internal jugular vein are exposed. A catheter is inserted into the jugular vein for blood sampling and administration of the test drug. Arterial blood pressure is monitored from the cannulated femoral artery with the use of a blood pressure transducer. A Doppler flow probe is placed on each common carotid artery proximal to both the point of insertion of the intraarterial electrode and the mechanical constrictor. […] Blood flow velocity in the carotid vessels is monitored continuously. […]
Electrolytic injury to the intimal surface of each carotid vessel is accomplished with the use of an intravascular electrode. […] The current delivered to each vessel is monitored continuously and maintained at 300 μA. […]

The subject of another test is platelets. The following applies: measured by e.g. serotonin release from dense granules; cited from earlier work.
The test system of test [4] is acute thrombotic reocclusion. The following applies: added to heparin plus tPA; cited from earlier work.
The test system of test [5] is coronary artery thrombosis. The settings on record: with recombinant tPA and heparin; cited from earlier work.

What is called pIC50 is the IC50 on a negative log10 scale, so that one unit is a factor of ten. On to `O=C(O)CN(CCN(CC(=O)O)CC(=O)O)CC(=O)O` [EDTA], for which the pIC50 in the test with MDA-MB-435 cells [1] is 3.10.
Regarding `Cc1ccc(-c2nn(C(C)(C)C)c3ncnc(N)c23)cc1` [PP1, reference compound], the “concentration for complete inhibition of contortrostatin-induced tyrosine phosphorylation” value in the test on MDA-MB-435 cells [2] (pretreated 30 min, 10 nM contortrostatin) worked out at 10 µM. For the same compound, in the test with T24 cells, the “concentration for complete elimination of contortrostatin-induced signals” value came to 100 µM.
Take “anisoylated plasminogen streptokinase activator complex [APSAC]”: the “RCA Thrombus, weight of residual thrombus, individual dog” value in test [3] (Dog # 1-6, listed as APSAC Control) was 27.3 mg and 47.6 mg and 90.5 mg and 60.1 mg and 67.5 mg and 78.5 mg. Moreover, in test [3] (dog, in vivo), the “carotid artery patency after infusion” value was “reoccluded and remained closed for the duration of the study”. Also, in test [3] (group mean), the “RCA Thrombus, weight of residual thrombus, Mean” value was found to be 61.9 mg and the “Thrombus weight per kg (dog weight)” value came to 4.1.
Regarding applaggin, in the test on platelets, the platelet release result is recorded as “also inhibits platelet release”.
As for “echistatin (QCESGPCCRNCKFLKEGTICKRARGDDMDDYCNGKTCDCPRNPHKGPAT) [reference compound]”, the “effect on contortrostatin (10 nM)-induced tyrosine phosphorylation” value in the test with MDA-MB-435 cells [2] (1 μM, added simultaneously, 10 min) is given as “completely abrogated”. Besides, the “effect alone on tyrosine phosphorylation” value in the test with MDA-MB-435 cells [2] (concentrations up to 1 μM) is “no effect on tyrosine phosphorylation”. For the same compound, in test [4], the “incidence of acute thrombotic reocclusion” value is recorded as “dramatic reductions in the incidence of acute thrombotic reocclusion”.
As to kistrin, the “effective dose sufficient to prevent reocclusion” value in test [5] is 4 µg/kg/min.
